# Key:
# SRPK1 = SRPK1 (Homo sapiens (Human), UniProt Q96SB4); assay: SRPK1 inhibitory activity; assay type: biochemical
# SRPK2 = SRPK2 (Homo sapiens (Human), UniProt P78362); assay: SRPK2 inhibitory activity; assay type: biochemical
# [1] = tested on: EML4-ALK^G1202R transformed Ba/F3 cells; assay: Ba/F3 single point inhibition assay (MTS); assay type: cell-based; details: single dose 1 μM, 72 hours
# Text: (§1) The MTS assay is a colorimetric method for determining the number of viable cells that is based on the bioreduction of MTS by cells to a formazan product that is soluble in cell culture medium and can be detected spectrophotometrically. […] All experimental points were set up in six wells and all experiments were repeated at least three times. […] The curves were fitted using a non-linear regression model with a sigmoidal dose response.
# [2] = tested on: EML4-ALK wt transformed Ba/F3 cells; assay: Ba/F3 single point inhibition assay (MTS); assay type: cell-based; details: single dose 1 μM, 72 hours
# Text: as §1
# [3] = target: EML4-ALK G1269A transformed Ba/F3 cells (Homo sapiens, UniProt Q9UM73, G1269A, cells depend on it); assay: Ba/F3 dose escalation MTS viability assay; assay type: cell-based; details: 72 hours
# Text: as §1
# (§2) Untransduced Ba/F3 control was used as a cytotoxicity control.
# [4] = target: EML4-ALK L1152R transformed Ba/F3 cells (Homo sapiens, UniProt Q9UM73, L1152R, cells depend on it); assay: Ba/F3 dose escalation MTS viability assay; assay type: cell-based; details: 72 hours
# Text: as §1, §2
# [5] = target: EML4-ALK^WT transformed Ba/F3 cells (Homo sapiens, UniProt Q9UM73); assay: Ba/F3 dose escalation MTS viability assay; details: read-out: IC50 wt, 72 hours
# Text: as §1, §2
# [6] = target: EML4-ALK S1206Y transformed Ba/F3 cells (Homo sapiens, UniProt Q9UM73, S1206Y, cells depend on it); assay: Ba/F3 dose escalation MTS viability assay; assay type: cell-based; details: 72 hours
# Text: as §1, §2
# [7] = target: EML4-ALK L1196M transformed Ba/F3 cells (Homo sapiens, UniProt Q9UM73, L1196M, cells depend on it); assay: Ba/F3 dose escalation MTS viability assay; details: read-out: IC50 L1196M, 72 hours
# Text: as §1, §2
# [8] = target: EML4-ALK G1202R transformed Ba/F3 cells (Homo sapiens, UniProt Q9UM73, G1202R, cells depend on it); assay: Ba/F3 dose escalation MTS viability assay; assay type: cell-based; details: 72 hours
# Text: as §1, §2
# [9] = target: EML4-ALK C1156Y transformed Ba/F3 cells (Homo sapiens, UniProt Q9UM73, C1156Y, cells depend on it); assay: Ba/F3 dose escalation MTS viability assay; assay type: cell-based; details: 72 hours
# Text: as §1, §2
Compound,IC50 (SRPK1),"Percent viability of untreated control, G1202R [1]","Percent viability of untreated control, wt [2]",other results
"CCc1cc2c(cc1-c1cnn(C)c1)C(C)(C)c1[nH]c3cc(C#N)ccc3c1C2=O [Compound 7, 9-ethyl-6,6-dimethyl-8-(1-methyl-1H-pyrazol-4-yl)-11-oxo-6,11-dihydro-5H-benzo[b]carbazole-3-carbonitrile]",3.01 nM,1%,1%,IC50 (SRPK2): 12.4 nM
"CCc1cc2c(cc1-c1cn[nH]c1)C(C)(C)c1[nH]c3cc(C#N)ccc3c1C2=O [Compound 8, 9-ethyl-6,6-dimethyl-11-oxo-8-(1H-pyrazol-4-yl)-6,11-dihydro-5H-benzo[b]carbazole-3-carbonitrile]",,1%,0%,
"CCc1cc2c(cc1-c1cc[nH]n1)C(C)(C)c1[nH]c3cc(C#N)ccc3c1C2=O [Compound 9, 9-ethyl-6,6-dimethyl-11-oxo-8-(1H-pyrazol-3-yl)-6,11-dihydro-5H-benzo[b]carbazole-3-carbonitrile]",1.15 nM,1%,1%,
"CCc1cc2c(cc1-c1ccoc1)C(C)(C)c1[nH]c3cc(C#N)ccc3c1C2=O [Compound 11, 9-ethyl-8-(furan-3-yl)-6,6-dimethyl-11-oxo-6,11-dihydro-5H-benzo[b]carbazole-3-carbonitrile]",,8%,6%,
"CCc1cc2c(cc1-c1cccs1)C(C)(C)c1[nH]c3cc(C#N)ccc3c1C2=O [Compound 12, 9-ethyl-6,6-dimethyl-11-oxo-8-(thiophen-2-yl)-6,11-dihydro-5H-benzo[b]carbazole-3-carbonitrile]",,10%,12%,
CCc1cc2c(cc1-c1ccncc1)C(C)(C)c1[nH]c3cc(C#N)ccc3c1C2=O [Compound 14],2.61 nM,5%,2%,
"CCc1cc2c(cc1-c1cccnc1)C(C)(C)c1[nH]c3cc(C#N)ccc3c1C2=O [Compound 15, 9-ethyl-6,6-dimethyl-11-oxo-8-(pyridin-3-yl)-6,11-dihydro-5H-benzo[b]carbazole-3-carbonitrile]",,3%,1%,
"CCc1cc2c(cc1-c1cncnc1)C(C)(C)c1[nH]c3cc(C#N)ccc3c1C2=O [Compound 16, 9-ethyl-6,6-dimethyl-11-oxo-8-(pyrimidin-5-yl)-6,11-dihydro-5H-benzo[b]carbazole-3-carbonitrile]",2.53 nM,4%,3%,IC50 (SRPK2): 12.5 nM
"CCc1cc2c(cc1N1CCC(N(C)C)CC1)C(C)(C)c1[nH]c3cc(C#N)ccc3c1C2=O [Compound 17, 8-(4-(dimethylamino)piperidin-1-yl)-9-ethyl-6,6-dimethyl-11-oxo-6,11-dihydro-5H-benzo[b]carbazole-3-carbonitrile]",> 1000 nM,9%,2%,IC50 [3]: 3 nM; IC50 [4]: 695 nM; IC50 [5]: 2 nM; IC50 [6]: 2 nM; IC50 [7]: 10 nM; IC50 [8]: 478 nM; IC50 [9]: 2 nM
"CCc1cc2c(cc1N1CCNCC1)C(C)(C)c1[nH]c3cc(C#N)ccc3c1C2=O [Compound 18, 9-ethyl-6,6-dimethyl-11-oxo-8-(piperazin-1-yl)-6,11-dihydro-5H-benzo[b]carbazole-3-carbonitrile]",,7%,1%,
"CCc1cc2c(cc1N1CCN(C)CC1)C(C)(C)c1[nH]c3cc(C#N)ccc3c1C2=O [Compound 19, 9-ethyl-6,6-dimethyl-8-(4-methylpiperazin-1-yl)-11-oxo-6,11-dihydro-5H-benzo[b]carbazole-3-carbonitrile]",2.66 nM,0.1%,0.1%,IC50 (SRPK2): 8.57 nM
"CCc1cc2c(cc1N1CCOCC1)C(C)(C)c1[nH]c3cc(C#N)ccc3c1C2=O [Compound 20, 9-ethyl-6,6-dimethyl-8-morpholino-11-oxo-6,11-dihydro-5H-benzo[b]carbazole-3-carbonitrile]",,4%,2%,
"CCc1cc2c(cc1C#N)C(C)(C)c1[nH]c3cc(C#N)ccc3c1C2=O [Compound 21, 9-ethyl-6,6-dimethyl-11-oxo-6,11-dihydro-5H-benzo[b]carbazole-3,8-dicarbonitrile]",,28%,19%,
"CCc1cc2c(cc1[C@@H](O)CO)C(C)(C)c1[nH]c3cc(C#N)ccc3c1C2=O [Compound 22, (R)-8-(1,2-dihydroxyethyl)-9-ethyl-6,6-dimethyl-11-oxo-6,11-dihydro-5H-benzo[b]carbazole-3-carbonitrile]",,39%,4%,
"CCc1cc2c(cc1[C@H](O)CO)C(C)(C)c1[nH]c3cc(C#N)ccc3c1C2=O [Compound 23, (S)-8-(1,2-dihydroxyethyl)-9-ethyl-6,6-dimethyl-11-oxo-6,11-dihydro-5H-benzo[b]carbazole-3-carbonitrile]",,,4%,
"CCc1cc2c(cc1C(=O)O)C(C)(C)c1[nH]c3cc(C#N)ccc3c1C2=O [Compound 24, 3-cyano-9-ethyl-6,6-dimethyl-11-oxo-6,11-dihydro-5H-benzo[b]carbazole-8-carboxylic acid]",,39%,57%,
"CCc1cc2c(cc1/C=C/CN1CCOCC1)C(C)(C)c1[nH]c3cc(C#N)ccc3c1C2=O [Compound 25, (E)-9-ethyl-6,6-dimethyl-8-(3-morpholinoprop-1-en-1-yl)-11-oxo-6,11-dihydro-5H-benzo[b]carbazole-3-carbonitrile]",,103%,93%,
"CCc1cc2c(cc1-c1ccc(O)nc1)C(C)(C)c1[nH]c3cc(C#N)ccc3c1C2=O [Compound 26, 9-ethyl-8-(6-hydroxypyridin-3-yl)-6,6-dimethyl-11-oxo-6,11-dihydro-5H-benzo[b]carbazole-3-carbonitrile]",,12%,4%,
"CCc1cc2c(cc1-c1ccc(N)nc1)C(C)(C)c1[nH]c3cc(C#N)ccc3c1C2=O [Compound 27, 8-(6-aminopyridin-3-yl)-9-ethyl-6,6-dimethyl-11-oxo-6,11-dihydro-5H-benzo[b]carbazole-3-carbonitrile]",,42%,12%,
"CCc1cc2c(cc1N(C)CCN(C)C)C(C)(C)c1[nH]c3cc(C#N)ccc3c1C2=O [Compound 28, 8-((2 (dimethylamino)ethyl)(methyl)amino)-9-ethyl-6,6-dimethyl-11-oxo-6,11-dihydro-5H-benzo[b]carbazole-3-carbonitrile]",,7%,2%,
"CCc1cc2c(cc1-c1cnn(CC(=O)NC)c1)C(C)(C)c1[nH]c3cc(C#N)ccc3c1C2=O [Compound 33, 2-(4-(3-cyano-9-ethyl-6,6-dimethyl-11-oxo-6,11-dihydro-5H-benzo[b]carbazol-8-yl)-1H-pyrazol-1-yl)-N-methylacetamide]",,0%,0%,
"CCc1cc2c(cc1-c1cnn(C(C)(C)C(=O)N(C)C)c1)C(C)(C)c1[nH]c3cc(C#N)ccc3c1C2=O [Compound 35, 2-(4-(3-cyano-9-ethyl-6,6-dimethyl-11-oxo-6,11-dihydro-5H-benzo[b]carbazol-8-yl)-1H-pyrazol-1-yl)-N,N,2-trimethylpropanamide]",,0%,0%,
"CCc1cc2c(cc1-c1cnn(C(=O)N(C)C)c1)C(C)(C)c1[nH]c3cc(C#N)ccc3c1C2=O [Compound 36, 4-(3-cyano-9-ethyl-6,6-dimethyl-11-oxo-6,11-dihydro-5H-benzo[b]carbazol-8-yl)-N,N-dimethyl-1H-pyrazole-1-carboxamide]",4.75 nM,0%,0%,IC50 (SRPK2): 23.6 nM
"CCc1cc2c(cc1-c1ccc(S(=O)(=O)F)cc1)C(C)(C)c1[nH]c3cc(C#N)ccc3c1C2=O [Compound 38, 4-(3-cyano-9-ethyl-6,6-dimethyl-11-oxo-6,11-dihydro-5H-benzo[b]carbazol-8-yl)benzenesulfonyl fluoride]",41 nM,,,

# Reference: patent US11066363B2, “Substituted 6,11-dihydro-5H-benzo[B]carbazoles as inhibitors of ALK and SRPK” (Dana-Farber Cancer Institute, Inc., priority 2015, dated 2021)
